Results on 5 compounds are retold here after US5334723A, “2-piperidinecarboxylic acid derivative, oncogene suppressor and agent for obtaining revertants” (Meiji Seika Kaisha, Ltd., priority 1991, dated 1994).

Series [1] has as its system P388 cells (mouse leukemia). Nature of the series: Antitumor effect on mouse tumor cells (MTT assay), P388. In kind it is cell-based. The note with it: 72 h, 3-day incubation. Here is the method:
(§1) The P388 and L1210 cells are derived from mouse leukemia. The MethA cells, the 3LL cells and the B16 cells are derived from solid cancer, Lewis lung cancer and melanoma, respectively.
(§2) The cells subcultured in a CO2 incubator were each suspended in an RPM1 medium or Dulbecco's modified MEM medium, supplemented with 10%(v/v) fetal serum so as to give a cell density of 5×10^4 cells/mi. To a 135 μl portion of the suspension was added each test compound shown in Table 1 followed by 3-day incubation in a CO2 incubator. After the incubation was completed, 50% inhibition concentration (IC50) was determined by the MTT assay (Igaku no Ayumi, 128, 733 (1984)).

The test system of series [2] is L1210 cells (mouse leukemia). Nature of the series: Antitumor effect on mouse tumor cells (MTT assay), L1210. The note with it: 72 h, 3-day incubation. In kind it is cell-based. As to the method: as §1, §2
On the technique in general: Formazan colour is commonly taken as a measure of viable cells.

In series [3] the test system is MethA cells (solid cancer). The series can be described thus: Antitumor effect on mouse tumor cells (MTT assay), MethA. Format: cell-based. As to conditions: Meth-A, 72 h, 3-day incubation. Here is the method: as §1, §2
Series [4] deals with 3LL cells (Lewis lung cancer). Nature of the series: Antitumor effect on mouse tumor cells (MTT assay), 3LL. As to conditions: 72 h, 3-day incubation. Format: cell-based. Here is the method: as §1, §2
In series [5] the test system is B16 cells (melanoma). The series can be described thus: Antitumor effect on mouse tumor cells (MTT assay), B16. In kind it is cell-based. As to conditions: 72 h, 3-day incubation. Here is the method: as §1, §2
Series [6] deals with HL60 cells (human leukemia). Nature of the series: Antitumor effect on human tumor cells (MTT assay), HL60. Format: cell-based. The note with it: HL-60, same manner as Test Example 1. Here is the method:
as §2
(§3) The antitumor effects of the compounds of the present invention were evaluated in the same manner as in Test Example 1 except that various human tumor cells were employed. The HL60 cells, the CCRF-CCM cells and the QG5 cells are derived from human leukemia, human T cells and human lung cancer, respectively.

Series [7] relates to CCRFCEM (human T cells). The series can be described thus: Antitumor effect on human tumor cells (MTT assay), CCRFCEM. In kind it is cell-based. The note with it: CCRF-CEM, same manner as Test Example 1. As to the method: as §2, §3
In series [8] the test system is OG56 (human lung cancer). The series can be described thus: Antitumor effect on human tumor cells (MTT assay), OG56. In kind it is cell-based. The note with it: same manner as Test Example 1. Here is the method: as §2, §3
Series [9] in a line: Acute toxicity, intravenous administration to male BDF mice. Format: in vivo, mouse. As to conditions: 3 mice per group. The source says:
The compounds of the present invention were intravenously administered to male BDF mice in order to examine the acute toxicity (each group having 3 mice).

In series [10] the test system is NIH3T3 cells transformed with the activated ras gene. The series can be described thus: Growth inhibition of NIH3T3 cells transformed with activated c-Ha-ras gene. As to conditions: 40 μg/ml, 1st to 6th days, FIG. 1. In kind it is cell-based, mouse. As to the method: (§4) NIH3T3 cells transformed with the activated ras gene (Proc. Natl. Acad. Sci. USA, 81, 4771-4775 (1984)) and normal NIH3T3 cells were incubated in a Dulbecco-modified Eagle medium containing 5% bovine serum. The initial cell concentrations were adjusted to 1×10^4 cells/mi. The compound obtained in Example 3 was added to a concentration of 40 μg/ml and the cell numbers were counted with the lapse of time from the 1st to the 6th days.

The subject of series [11] is normal NIH3T3 cells. The series can be described thus: Growth of normal NIH3T3 cells. In kind it is cell-based, mouse. The note with it: 40 μg/ml, 1st to 6th days, FIG. 1. As to the method:
as §4

Series [12] has as its system NIH3T3 cells transformed with the activated c-Ha-ras gene. Nature of the series: Acquisition of revertant cells from transformed NIH3T3 cells, microscopic observation. Format: cell-based, mouse. As to conditions: 40 μg/ml, 6 days. As to the method:
(§5) NIH3T3 cells transformed with the activated c-Ha-ras gene and normal NIH3T3 cells were incubated for 6 days in the presence of 40 μg/ml of the compound obtained in Example 3 under the same conditions as in Example 6. The cells were microscopically observed in detail.

The subject of series [13] is normal NIH3T3 cells. The series can be described thus: Morphology of normal NIH3T3 cells, microscopic observation. As to conditions: 40 μg/ml, 6 days. In kind it is cell-based, mouse. Here is the method:
as §5

For series [14], the system named is ras gene product p21. The series can be described thus: Expression of ras gene product p21 in revertant cells (Western blotting). Format: cell-based. As to conditions: revertants isolated in Example 7, FIG. 2. Here is the method:
2×10^6 portions of these cells were collected and each suspended in 1 ml of a buffer solution (100 mM NaCl, 20 mM Tris hydrochloride (pH 7.5), 5 mM MgCl2, 1% NonidetP-40 (polyoxyethylene(9)p-tert-octylphenol), 0.5% sodium deoxycholate, protease inhibitor) and then ground with a Potter homogenizer. After centrifuging at 3600 r.p.m. for 60 minutes, 10 μg portions of proteins were isolated from the supernatant by 12.5% polyacrylamide gel electrophoresis.
Then, the proteins in the gel were transferred into a nitrocellulose membrane and reacted with NCC-RAS-004, which was a monoclonal antibody for p21, at 4° C. for 24 hours to perform Western blotting. After reacting with rat Ig and ^125 I-Protein A, radioautography was performed.
(Immunoblotting shows a protein as a band on a membrane.)

In series [15] the test system is revertant cells transplanted onto BALB/C nude mice. Nature of the series: Carcinogenic ability of revertant cells on nude mouse. Format: in vivo. The note with it: revertants of Example 7, 3×10^5 cells.
For series [16] the following is noted: Proceedings of 50th General Meeting of Japan Society of Cancer, 1991; cited from earlier work.
The subject of series [17] is NIH3T3 cells transformed with the activated ras gene. As to conditions: JP-A-1-110627, cited from earlier work.
Series [18] relates to normal NIH3T3 cells. As to conditions: 500 μg/ml, JP-A-1-110627; cited from earlier work.

SMILES strings stand for the structures. In brackets after ≈: the same amount, converted by molar mass.

Regarding `O=C1C=CC[C@@H](C(=O)O)N1` [Compound of Ex. 1], the IC50 was found to be 200 µg/mL (≈ 1420 µM) in series [1]; 130 µg/mL (≈ 921 µM) in series [2]; 100 µg/mL (≈ 709 µM) in series [3]; 100 µg/mL (≈ 709 µM) in [4]; 90 µg/mL (≈ 638 µM) in [5]; 90 µg/mL (≈ 638 µM) in [6]. For the same compound, the values for the IC50 in series [7] and in series [8] were 90 µg/mL (≈ 638 µM) and 180 µg/mL (≈ 1280 µM), respectively. Moreover, the “Survival dose (doses causing no death)” value in series [9] was 1000 mg/kg.
As to `O=C(O)[C@@H]1CC=CC(=S)N1` [Compound of Ex. 3], the IC50 in [1] was determined as 5 µg/mL (≈ 31.8 µM); in [2] it was 9 µg/mL (≈ 57.3 µM); in series [3], 11 µg/mL (≈ 70 µM); in series [4] it was 11 µg/mL (≈ 70 µM); in [5], 45 µg/mL (≈ 286 µM); in series [6], 20 µg/mL (≈ 127 µM). Also, the IC50 amounted to 20 µg/mL (≈ 127 µM) in series [7] and 70 µg/mL (≈ 445 µM) in series [8]. In addition, the “Survival dose (doses causing no death)” value in series [9] amounted to 800 mg/kg. The “growth inhibition of NIH3T3 cells transformed with the activated ras gene” value in series [10] was “inhibited the growth”. Further, in series [11], the “growth of normal NIH3T3 cells” value is reported as “continued to grow”. Also, the “death of transformed NIH3T3 cells” value in series [12] was “partially died”. The “revertants among surviving transformed NIH3T3 cells (morphology)” value in series [12] is “revertants which were flat and had nuclei and nucleoli morphologically similar to the normal NIH3T3 cells”. Moreover, the “morphological change of normal NIH3T3 cells” value in [13] is on record as “no morphological change”. In [14], the “expression of activated p21 in revertants” value is reported as “the activated p21 was expressed in the revertants”. The “tumor formation by revertants on nude mice” value in [15] was “scarcely induced tumor formation”.
Turning to `N=C1C=CCC(C(=O)O)N1` (stereo not drawn) [Compound of Ex. 4], in [9], the “Survival dose (doses causing no death)” value is 600 mg/kg.
For `N=C1C=CC[C@@H](C(=O)O)N1` [SF2698], the IC50 in [1] was determined as 120 µg/mL (≈ 856 µM); in series [2], 65 µg/mL (≈ 464 µM); in series [3], 46 µg/mL (≈ 328 µM); in series [4] it was 51 µg/mL (≈ 364 µM); in [5], 41 µg/mL (≈ 293 µM); in [6], 45 µg/mL (≈ 321 µM). For the same compound, the IC50 in series [7] was 45 µg/mL (≈ 321 µM); in series [8] it was 80 µg/mL (≈ 571 µM). In addition, in series [9], the “Survival dose (doses causing no death)” value worked out at 300 mg/kg. The antitumor activity entry in [16] is listed as “has an antitumor activity”.
For the compound `N[C@@H](Cc1ccc(O)cn1)C(=O)O` [azatyrosine, L-β-(5-hydroxy-2-pyridyl)alanine], the “growth inhibition of NIH3T3 cells transformed with the activated ras gene (azatyrosine)” value in series [17] (500 μg/ml) was “selectively inhibited the growth”. Moreover, the “nature of cells surviving after treatment with azatyrosine” value in series [17] is reported as “revertant cells”. Further, the “growth inhibition of normal NIH3T3 cells (azatyrosine)” value in series [18] is on record as “never inhibited the growth”.

By IC50 is commonly meant the concentration that gives 50% inhibition. A higher IC50 goes with weaker potency.
